Source: ChEMBL document CHEMBL5500375, “Design, synthesis, and evaluation of N1,N3-dialkyldioxonaphthoimidazoliums as antibacterial agents against methicillin-resistant Staphylococcus aureus” (Eur J Med Chem, 2024)
Active and inactive are the calls of the source. The calls are words filed in the database; no cut-off is given here.

How the values were obtained:
[1] = test system: Staphylococcus aureus; assay: Antibacterial agents against methicillin-resistant Staphylococcus aureus SA3 assessed as absence of growth measured after 18 hrs by micro-dilution method; type: functional
[2] = test system: Staphylococcus aureus; assay: Antibacterial agents against methicillin-sensitive Staphylococcus aureus SA1 assessed as absence of growth measured after 18 hrs by micro-dilution method; type: functional
[3] = test system: Bacillus subtilis; assay: Antibacterial agents against Bacillus subtilis PS380 assessed as absence of growth measured after 18 hrs by micro-dilution method; type: functional
[4] = test system: Staphylococcus aureus; assay: Antibacterial agents against methicillin-resistant Staphylococcus aureus USA300 assessed as absence of growth measured after 18 hrs by micro-dilution method; type: functional
[5] = test system: Staphylococcus aureus; assay: Antibacterial agents against methicillin-sensitive Staphylococcus aureus Newman assessed as absence of growth measured after 18 hrs by micro-dilution method; type: functional
[6] = In vivo toxicity in Drosophila melanogaster strain Oregon R assessed as survival rate at 0.1 to 1 mg/ml measured upto 72 hrs relative to control; type: organism-based; conditions: dose 0.1-1 mg/ml; for Activity: 72 h
[7] = Metabolic stability in human liver microsomes assessed as half life at 2 uM preincubated for 5 mins followed by NADPH addition and measured for 35 mins by LC/MS analysis; type: ADME, Microsome; conditions: preincubation 5 min
[8] = Metabolic stability in human liver microsomes assessed as intrinsic clearance at 2 uM preincubated for 5 mins followed by NADPH addition and measured for 35 mins by LC/MS analysis; type: ADME, Microsome; conditions: read-out: CLH
[9] = test system: Pseudomonas aeruginosa; assay: Antibacterial agents against gram negative Pseudomonas aeruginosa PA14 assessed as reduction in colony forming unit at 0.05 to 0.2 ug/ml measured upto 10 hrs by LB agar medium method; type: functional, organism-based; conditions: dose 0.05-0.2 µg/ml
[10] = test system: Escherichia coli; assay: Antibacterial agents against gram negative Escherichia coli MG1655 assessed as reduction in colony forming unit at 0.05 to 0.2 ug/ml measured upto 10 hrs by LB agar medium method; type: functional, organism-based; conditions: dose 0.05-0.2 µg/ml
[11] = test system: Staphylococcus aureus; assay: Antibacterial agents against c5-resistant mutant of methicillin-resistant Staphylococcus aureus SA3 m1 assessed as absence of growth measured after 18 hrs by micro-dilution method; type: functional
[12] = test system: Staphylococcus aureus; assay: Antibacterial agents against c5-resistant mutant of methicillin-resistant Staphylococcus aureus SA3 m2 assessed as absence of growth measured after 18 hrs by micro-dilution method; type: functional
[13] = test system: Staphylococcus aureus; assay: Antibacterial agents against c5-resistant mutant of methicillin-resistant Staphylococcus aureus SA3 m3 assessed as absence of growth measured after 18 hrs by micro-dilution method; type: functional
[14] = test system: Staphylococcus aureus; assay: Antibacterial agents against c5-resistant mutant of methicillin-resistant Staphylococcus aureus SA3 m4 assessed as absence of growth measured after 18 hrs by micro-dilution method; type: functional
[15] = test system: Staphylococcus aureus; assay: Induction of ROS generation in methicillin-resistant Staphylococcus aureus SA3 using hydroxyphenyl fluorescein at 0.09 ug/ml under anaerobic condition; type: functional, organism-based; conditions: dose 0.09 µg/ml, TDE = time-dependent effect
[16] = test system: Staphylococcus aureus; assay: Induction of ROS generation in methicillin-resistant Staphylococcus aureus USA300 using hydroxyphenyl fluorescein at 0.09 ug/ml under anaerobic condition; type: functional, organism-based; conditions: dose 0.09 µg/ml, TDE = time-dependent effect
[17] = test system: Staphylococcus aureus; assay: In vivo antibacterial activity against methicillin-resistant Staphylococcus aureus SA3 infected in dorsal thorax of Drosophila melanogaster strain Oregon R assessed as survival time of Drosophila at 0.2 mg/ml measured upto 72 hrs; type: functional
[18] = test system: Staphylococcus aureus; assay: In vivo antibacterial activity against methicillin-resistant Staphylococcus aureus SA3 infected in dorsal thorax of Drosophila melanogaster strain Oregon R assessed as median survival time of Drosophila at 0.04 to 0.2 mg/ml measured upto 72 hrs; type: functional; conditions: dose 0.04-0.2 mg/ml
[19] = test system: Staphylococcus aureus; assay: Reduction in virulent activity of methicillin-resistant Staphylococcus aureus SA3 infected in dorsal thorax of Drosophila melanogaster strain Oregon R at 0.2 mg/ml measured upto 72 hrs; type: functional, organism-based

Molecule | MIC [1] | MIC [2] | MIC [3] | other results
CCCCCCn1c2c([n+](Cc3ccco3)c1C)C(=O)c1ccccc1C2=O.[Br-] | 0.78 µg/mL | 0.78 µg/mL | 3.13 µg/mL | –
Cc1n(C2CCCC2)c2c([n+]1Cc1ccccc1)C(=O)c1ccccc1C2=O.[Br-] | 12.5 µg/mL | – | – | –
CCCCCCCCn1c2c([n+](Cc3ccco3)c1C)C(=O)c1ccccc1C2=O.[Br-] | 0.39 µg/mL | 0.39 µg/mL | 0.39 µg/mL | MIC [4]: 0.39 µg/mL; MIC [5]: 0.39 µg/mL; Activity [6]: Toxic; half-life at 2 µM [7]: 16.1 min; CLint scaled at 2 µM [8]: 95 mL/min/kg
Cc1n(Cc2ccco2)c2c([n+]1Cc1ccccc1)C(=O)c1ccccc1C2=O.[Br-] | 6.25 µg/mL | – | – | –
Cc1n(C(C)C)c2c([n+]1Cc1ccccc1)C(=O)c1ccccc1C2=O.[Br-] | 3.13 µg/mL | – | – | –
CCCCn1c2c([n+](CC3CCCCC3)c1C)C(=O)c1ccccc1C2=O.[Br-] | 3.13 µg/mL | – | – | –
CCCCCCn1c2c([n+](CCCCCC)c1C)C(=O)c1ccccc1C2=O.[Br-] | 0.78 µg/mL | 0.78 µg/mL | 1.56 µg/mL | MIC [4]: 0.78 µg/mL; MIC [5]: 0.78 µg/mL
CCCCCCCn1c2c([n+](CCCC)c1C)C(=O)c1ccccc1C2=O.[Br-] | 0.78 µg/mL | 0.78 µg/mL | 0.39 µg/mL | –
CCn1c2c([n+](Cc3ccco3)c1C)C(=O)c1ccccc1C2=O.[Br-] | 12.5 µg/mL | – | – | –
CCCCCCCn1c2c([n+](CCCCCCC)c1C)C(=O)c1ccccc1C2=O.[Br-] | 0.39 µg/mL | 0.39 µg/mL | 0.39 µg/mL | MIC [4]: 0.39 µg/mL; MIC [5]: 0.39 µg/mL; Activity [6]: Non-Toxic; half-life at 2 µM [7]: 17.4 min; CLint scaled at 2 µM [8]: 77 mL/min/kg
Cc1n(CC2CC2)c2c([n+]1Cc1ccccc1)C(=O)c1ccccc1C2=O.[Br-] | 1.56 µg/mL | 0.78 µg/mL | 1.56 µg/mL | –
CCCCCCCn1c2c([n+](Cc3ccco3)c1C)C(=O)c1ccccc1C2=O.[Br-] | 0.78 µg/mL | 0.78 µg/mL | 0.78 µg/mL | MIC [4]: 0.78 µg/mL; MIC [5]: 0.78 µg/mL; Activity [6]: Non-Toxic; half-life at 2 µM [7]: 55.1 min; CLint scaled at 2 µM [8]: 24 mL/min/kg
CCCCn1c2c([n+](C3CCCCC3)c1C)C(=O)c1ccccc1C2=O.[Br-] | 25 µg/mL | – | – | –
Cc1n(C2CCCCC2)c2c([n+]1Cc1ccccc1)C(=O)c1ccccc1C2=O.[Br-] | 1.56 µg/mL | 0.78 µg/mL | 1.56 µg/mL | –
Cc1n(C2CCC2)c2c([n+]1Cc1ccccc1)C(=O)c1ccccc1C2=O.[Br-] | 3.13 µg/mL | – | – | –
CCCn1c2c([n+](Cc3ccccc3)c1C)C(=O)c1ccccc1C2=O.[Br-] | 6.25 µg/mL | – | – | –
POLYMYXIN B | – | – | – | Activity [9]: inactive; Activity [10]: inactive
CCCCCn1c2c([n+](CCCC)c1C)C(=O)c1ccccc1C2=O.[Br-] | 3.13 µg/mL | – | – | –
CCn1c2c([n+](Cc3ccccc3)c1C)C(=O)c1ccccc1C2=O.[Br-] | 3.13 µg/mL | – | – | –
CCCCCCn1c2c([n+](Cc3ccccc3)c1C)C(=O)c1ccccc1C2=O.[Br-] | 0.78 µg/mL | 0.78 µg/mL | 0.78 µg/mL | –
CCCCCC[n+]1c2c(n(CCOC)c1C)C(=O)c1ccccc1C2=O.[Br-] | 6.25 µg/mL | 6.25 µg/mL | 6.25 µg/mL | MIC [4]: 6.25 µg/mL; MIC [5]: 6.25 µg/mL; MIC [11]: > 50 µg/mL; MIC [12]: > 50 µg/mL; MIC [13]: > 50 µg/mL; MIC [14]: > 50 µg/mL; half-life at 2 µM [7]: 33.7 min; CLint scaled at 2 µM [8]: 37 mL/min/kg; Activity [15]: Tde; Activity [16]: Tde; Time [17]: 54 h; Time [18]: 38 h; Activity [19]: inactive
CCCCCCCCCCn1c2c([n+](CCCC)c1C)C(=O)c1ccccc1C2=O.[Br-] | 3.13 µg/mL | – | – | –
CCCCCCCn1c2c([n+](Cc3ccccc3)c1C)C(=O)c1ccccc1C2=O.[Br-] | 0.78 µg/mL | 0.39 µg/mL | 0.78 µg/mL | MIC [4]: 0.78 µg/mL; MIC [5]: 0.39 µg/mL; survival at 72 h ([6]; Oregon R, at 0.1 to 1 mg/mL): 75%; half-life at 2 µM [7]: 15.6 min; CLint scaled at 2 µM [8]: 101 mL/min/kg
